According to paper PMC8000079, “Targeting GABAC Receptors Improves Post-Stroke Motor Recovery” (Brain Sciences, 2021):

Experiments:
Type in all cases: cell-based
ρ2 GABAC receptor [1] = biological target: T1, ρ2 GABAC receptor (Homo sapiens, UniProt P28476); assay: two-electrode voltage clamp in Xenopus oocytes, shift of GABA concentration-response curve; conditions: read-out: Kd
T1 construct: gene GABRR2; human recombinant ρ2 GABAC receptors expressed in Xenopus oocytes

α5β2γ2 GABAA receptor = biological target: T2, α5β2γ2 GABAA receptor (Homo sapiens, UniProt P31644+P47870); assay: two-electrode voltage clamp in Xenopus oocytes, % inhibition of GABA ([…]) current at […]
T2 construct: gene GABRA5; α5β2γ2 receptors expressed in Xenopus oocytes; with β2 and γ2 GABAA subunits
T2 sequence (P47870 26-512): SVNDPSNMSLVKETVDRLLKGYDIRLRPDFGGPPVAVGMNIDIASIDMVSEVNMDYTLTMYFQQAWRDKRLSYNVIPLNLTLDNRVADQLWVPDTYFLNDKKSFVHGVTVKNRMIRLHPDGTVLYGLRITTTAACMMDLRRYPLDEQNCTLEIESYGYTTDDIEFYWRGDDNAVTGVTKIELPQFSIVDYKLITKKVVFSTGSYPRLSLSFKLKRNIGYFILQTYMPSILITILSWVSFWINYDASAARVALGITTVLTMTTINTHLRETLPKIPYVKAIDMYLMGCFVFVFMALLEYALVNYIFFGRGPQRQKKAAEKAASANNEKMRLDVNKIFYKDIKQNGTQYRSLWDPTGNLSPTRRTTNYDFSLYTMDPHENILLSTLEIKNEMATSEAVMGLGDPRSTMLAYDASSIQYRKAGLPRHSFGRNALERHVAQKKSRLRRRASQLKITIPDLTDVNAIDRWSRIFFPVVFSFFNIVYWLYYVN
T2 sequence (P18507 40-475, further chain): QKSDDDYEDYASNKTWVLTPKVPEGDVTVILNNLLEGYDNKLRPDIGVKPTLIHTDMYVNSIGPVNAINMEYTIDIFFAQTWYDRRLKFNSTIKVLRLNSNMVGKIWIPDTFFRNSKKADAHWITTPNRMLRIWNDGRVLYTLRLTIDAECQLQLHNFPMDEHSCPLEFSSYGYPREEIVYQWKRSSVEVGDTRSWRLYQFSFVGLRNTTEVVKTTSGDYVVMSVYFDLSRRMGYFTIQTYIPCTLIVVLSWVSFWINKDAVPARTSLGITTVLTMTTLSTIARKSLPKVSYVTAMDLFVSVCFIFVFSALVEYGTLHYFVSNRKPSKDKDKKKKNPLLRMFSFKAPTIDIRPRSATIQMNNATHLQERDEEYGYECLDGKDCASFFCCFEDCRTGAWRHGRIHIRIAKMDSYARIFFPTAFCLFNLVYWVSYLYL
T2 sequence (P31644 32-462): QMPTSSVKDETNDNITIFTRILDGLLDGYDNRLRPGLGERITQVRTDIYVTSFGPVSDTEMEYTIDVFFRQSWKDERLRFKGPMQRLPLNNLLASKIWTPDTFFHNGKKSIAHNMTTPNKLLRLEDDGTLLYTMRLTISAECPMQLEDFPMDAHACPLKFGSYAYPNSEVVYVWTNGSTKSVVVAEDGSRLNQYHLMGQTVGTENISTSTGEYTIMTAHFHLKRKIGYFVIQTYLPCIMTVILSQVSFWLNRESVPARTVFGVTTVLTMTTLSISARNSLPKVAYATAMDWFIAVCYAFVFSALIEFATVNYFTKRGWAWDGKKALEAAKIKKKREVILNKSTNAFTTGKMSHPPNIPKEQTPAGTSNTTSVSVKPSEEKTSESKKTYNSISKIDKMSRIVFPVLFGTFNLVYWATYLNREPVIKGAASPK

ρ2 GABAC receptor [2] = biological target: T1, ρ2 GABAC receptor; assay: two-electrode voltage clamp in Xenopus oocytes, agonist dose-response

T1 sequence (P28476 21-465): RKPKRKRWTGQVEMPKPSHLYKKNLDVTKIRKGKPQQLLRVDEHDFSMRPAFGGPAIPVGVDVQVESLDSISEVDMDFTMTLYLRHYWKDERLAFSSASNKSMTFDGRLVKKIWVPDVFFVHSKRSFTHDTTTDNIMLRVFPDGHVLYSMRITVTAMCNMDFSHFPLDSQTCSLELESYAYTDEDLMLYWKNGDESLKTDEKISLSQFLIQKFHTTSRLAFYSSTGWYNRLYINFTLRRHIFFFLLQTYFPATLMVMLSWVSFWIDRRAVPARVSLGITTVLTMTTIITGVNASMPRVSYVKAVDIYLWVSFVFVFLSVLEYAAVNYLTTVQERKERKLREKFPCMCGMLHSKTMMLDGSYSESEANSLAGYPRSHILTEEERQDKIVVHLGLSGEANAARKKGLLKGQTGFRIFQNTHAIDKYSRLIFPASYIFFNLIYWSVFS

Row | Compound | Kb (ρ2 GABAC receptor [1]) | inhibition at 100 µM (α5β2γ2 GABAA receptor) | EC50 (ρ2 GABAC receptor [2])
1 | CCCCP(=O)(O)C1=CC[C@@H](N)C1 [(R)-4-ACPBPA, (R)-4-amino-cyclopent-1-enyl butylphosphinic acid] | 6 µM | 36 ± 2% | –
2 | NCCCC(=O)O [GABA, γ-aminobutyric acid] | – | – | ~ 1 µM
3 | CCCCP(=O)(O)C1=CC[C@H](N)C1 [(S)-4-ACPBPA, (S)-4-amino-cyclopent-1-enyl butylphosphinic acid] | 10.5 µM | 37 ± 1.5% | –
